Assays:
[1] = target: β-glucosidase (sweet almond); experiment: β-glucosidase inhibition assay (p-nitrophenyl β-D-glucopyranoside substrate); type: biochemical; conditions: sweet almond enzyme; NI = no inhibition
Protocol: (§1) Eight samples synthesized here were used in a biological assay against three glycosidases, namely α-glucosidase (yeast), β-glucosidase (sweet almond), and α-mannosidase (Jack bean).
(§2) After incubation for 20 min at 37 °C, the reaction was interrupted by the addition of 0.5 M sodium carbonate (100 μL). The amount of p-nitrophenol liberated was measured colorimetrically at 400 nm (optical density at 400 nm: ODtest). […] Assays for β-glucosidase and α-mannosidase were carried out as outlined above using p-nitrophenyl β-D-glucopyranoside and α-D-mannopyranoside as the substrates.
(§3) Assays on β-glucosidase and α-mannnosidase inhibition of synthesized carbadisaccharides 6 and 21–23 were carried out in a similar fashion.

[2] = target: T1, α-mannosidase (Jack bean) (Canavalia ensiformis, UniProt C0HJB3); experiment: α-mannosidase inhibition assay (p-nitrophenyl α-D-mannopyranoside substrate); type: biochemical; conditions: Jack bean enzyme; NI = no inhibition
T1 construct: purchased Sigma-Aldrich Co. LLC. lot; 055K7047 (catalogue number not given)
T1 sequence (C0HJB3 1-981): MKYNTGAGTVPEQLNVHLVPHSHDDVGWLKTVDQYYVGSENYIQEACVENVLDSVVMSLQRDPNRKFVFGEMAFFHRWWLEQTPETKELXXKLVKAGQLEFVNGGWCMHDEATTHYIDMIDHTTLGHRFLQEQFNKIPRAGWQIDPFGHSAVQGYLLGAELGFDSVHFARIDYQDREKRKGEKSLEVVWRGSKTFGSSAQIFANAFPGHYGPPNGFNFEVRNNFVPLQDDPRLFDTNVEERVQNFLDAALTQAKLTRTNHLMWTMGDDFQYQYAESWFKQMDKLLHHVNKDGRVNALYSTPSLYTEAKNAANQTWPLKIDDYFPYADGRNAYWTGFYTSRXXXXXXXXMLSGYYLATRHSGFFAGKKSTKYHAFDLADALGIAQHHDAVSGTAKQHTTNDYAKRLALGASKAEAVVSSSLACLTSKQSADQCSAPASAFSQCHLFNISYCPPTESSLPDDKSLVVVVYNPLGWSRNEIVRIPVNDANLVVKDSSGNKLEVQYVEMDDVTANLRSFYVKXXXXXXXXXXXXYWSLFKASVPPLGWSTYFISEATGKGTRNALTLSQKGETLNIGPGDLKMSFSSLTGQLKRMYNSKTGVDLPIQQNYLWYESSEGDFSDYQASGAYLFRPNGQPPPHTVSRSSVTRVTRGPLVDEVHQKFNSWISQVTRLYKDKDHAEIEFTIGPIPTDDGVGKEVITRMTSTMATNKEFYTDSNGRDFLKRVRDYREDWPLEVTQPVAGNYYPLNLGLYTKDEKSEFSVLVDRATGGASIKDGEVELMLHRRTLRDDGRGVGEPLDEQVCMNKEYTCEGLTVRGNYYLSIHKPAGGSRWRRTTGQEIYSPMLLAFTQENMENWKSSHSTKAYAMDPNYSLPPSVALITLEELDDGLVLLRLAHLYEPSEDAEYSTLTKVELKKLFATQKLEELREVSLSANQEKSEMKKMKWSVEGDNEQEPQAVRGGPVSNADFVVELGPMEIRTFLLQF
Protocol: as §1, §2, §3

α-glucosidase (yeast) = α-glucosidase (yeast) (Saccharomyces cerevisiae, UniProt P53341); experiment: α-glucosidase inhibition assay (p-nitrophenyl α-D-glucopyranoside substrate); type: biochemical; conditions: yeast enzyme; relative to positive control DNJ
Protocol: as §1, §2

[3] = system: melanoma cell line UACC-62; design: method as in PMID 24285637, PMID 26928999; conditions: cited from earlier work

Sequence of α-glucosidase (yeast) (P53341 whole entry): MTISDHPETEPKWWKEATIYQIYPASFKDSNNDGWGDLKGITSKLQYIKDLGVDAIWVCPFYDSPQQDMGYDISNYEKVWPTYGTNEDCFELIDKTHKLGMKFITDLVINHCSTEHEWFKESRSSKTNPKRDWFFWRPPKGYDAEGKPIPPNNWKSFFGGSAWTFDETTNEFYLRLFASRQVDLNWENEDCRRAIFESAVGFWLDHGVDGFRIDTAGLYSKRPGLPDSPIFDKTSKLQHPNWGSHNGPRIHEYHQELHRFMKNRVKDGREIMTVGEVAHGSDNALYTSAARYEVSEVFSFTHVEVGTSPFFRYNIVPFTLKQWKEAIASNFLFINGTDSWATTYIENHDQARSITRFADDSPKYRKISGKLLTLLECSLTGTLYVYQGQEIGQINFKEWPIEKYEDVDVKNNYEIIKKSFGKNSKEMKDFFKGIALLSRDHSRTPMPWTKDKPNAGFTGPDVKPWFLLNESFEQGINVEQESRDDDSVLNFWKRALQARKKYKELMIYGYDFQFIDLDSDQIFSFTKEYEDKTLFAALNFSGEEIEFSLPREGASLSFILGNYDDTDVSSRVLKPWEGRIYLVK

Row | SMILES | IC50 [1] | IC50 [2] | α-glucosidase inhibitory potency relative to deoxynojirimycin (DNJ), fold/times (α-glucosidase (yeast)) | inhibition against melanoma cell line UACC-62 [3]
1 | COC(=O)C1=C[C@H](O)[C@H](O)[C@H](O[C@H]2C(C(=O)OC)=C[C@@H](O)[C@@H](O)[C@H]2O)[C@H]1Cl [(+)-pericosine E (6)] | > 10 mM | > 10 mM |  | 
2 | COC(=O)C1=C[C@@H](O)[C@@H](O)[C@@H](O[C@@H]2C(C(=O)OC)=C[C@H](O)[C@H](O)[C@@H]2O)[C@@H]1Cl [(−)-pericosine E (6), (3R,4R,5R,6R)-methyl 6-chloro-3,4-dihydroxy-5-{[(1R,4S,5S,6S)-4,5,6-trihydroxy-2-(methoxycarbonyl)cyclohex-2-en-1-yl]oxy}cyclohex-1-enecarboxylate] | > 10 mM | > 10 mM | one-third | 
5 | COC(=O)C1=C[C@@H](O)[C@@H](O)[C@@H](O[C@@H]2C(C(=O)OC)=C[C@H](O)[C@H](O)[C@H]2O)[C@@H]1Cl [(−)-21] | > 10 mM | > 10 mM | one-third | 
6 | COC(=O)C1=C[C@H](O)[C@H](O)[C@H](O[C@H]2C(C(=O)OC)=C[C@@H](O)[C@@H](O)[C@@H]2O)[C@H]1Cl [(+)-21] | > 10 mM | > 10 mM |  | 
7 | COC(=O)C1=C[C@@H](O)[C@@H](O)[C@@H](O[C@H]2C(C(=O)OC)=C[C@@H](O)[C@@H](O)[C@H]2O)[C@@H]1Cl [(−)-22] | > 10 mM | > 10 mM |  | 
8 | C=C[C@@H]1C[C@H](C)C[C@H](C)[C@H]1c1c(O)ccn(O[C@@H]2C(C(=O)OC)=C[C@@H](O)[C@@H](O)[C@H]2O)c1=O [maximiscin] |  |  |  | potent inhibition
9 | COC(=O)C1=C[C@H](O)[C@H](O)[C@@H](O)[C@@H]1O[C@H]1[C@@H](O)[C@@H](O)C=C(C(=O)OC)[C@@H]1Cl [(+)-23] | > 10 mM | > 10 mM |  | 
10 | COC(=O)C1=C[C@@H](O)[C@@H](O)[C@@H](O[C@H]2C(C(=O)OC)=C[C@@H](O)[C@@H](O)[C@@H]2O)[C@@H]1Cl [(−)-23] | > 10 mM | > 10 mM |  | 
11 | COC(=O)C1=C[C@H](O)[C@H](O)[C@H](O)[C@@H]1O[C@H]1[C@@H](O)[C@@H](O)C=C(C(=O)OC)[C@@H]1Cl [(+)-22] | > 10 mM | > 10 mM |  | 
